Measured values from paper PMC10484922, “Discovery of a selective and biologically active low-molecular weight antagonist of human interleukin-1β” (Nature Communications, 2023).
“And” between values parts separate entries of the source, which are not always exact repeats. Equal values may be shown once. Read-outs that look alike come from different tables or passages of the source.

What was measured:
IL-1α = target: T1, IL-1α (Homo sapiens, UniProt P01583); test: TR-FRET IL-1α/hIL-1R1 receptor displacement assay; format: biochemical; design: TR-FRET raw data: scale not given here
T1 sequence (P01583 113-271): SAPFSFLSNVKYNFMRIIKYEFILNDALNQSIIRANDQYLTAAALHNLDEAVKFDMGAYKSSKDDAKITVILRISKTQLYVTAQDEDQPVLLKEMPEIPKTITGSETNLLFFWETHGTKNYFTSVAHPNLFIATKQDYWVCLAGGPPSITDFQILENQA
Experimental: After 1 h incubation at room temperature, hIL-1R1 (1–332; Alexa 647 labeled; 50 nM final concentration) and anti-His-Europium W1024 (Perkin Elmer; Cat.No. AD0401, 1 nM final concentration) were added to a final volume of 10 μl per well. After 1 h of incubation at room temperature, time-resolved fluorescence was measured at λexc = 320 ± 20 nm, λem = 620 ± 25 nm/665 ± 25 nm using a Pherastar FSX plate reader. All experiments were run in triplicates. The data provided a typical saturation-binding curve, and the IC50 values were calculated by fitting the results to the Hill equation using Prism 7.0 and the in-house software Helios.

[1] = test system: HEK-Blue IL-1β cells stimulated with hIL-1α; test: HEK293 reporter gene assay, hIL-1α as trigger; format: cell-based, human
Experimental: (§1) We used HEK-Blue™ IL-1β cells that respond specifically to IL-1 (# hkb-il1b, InvivoGen). These cells can detect IL-1α and IL-1β, as these cytokines bind to the same receptor, IL-1R1. They express a Seap reporter gene under the control of the IFN-β minimal promoter fused to five NF-kappaB and five AP-1 binding sites. Thirty microliters (300,000 cells/ml) per well of a 384-well plate were plated overnight. Cells were then stimulated with graded concentrations of cytokines (hIL-1α or hIL-1β) in the absence or presence of canakinumab (Ilaris®, ILARI LYVI 150MG 22GLW.012, batch U003 0409)[22], anakinra (Kineret®, 100 mg/0.67 ml injectable solution, Sobi)[23], or compound (S)-2 (compounds were pre-mixed for 1 h with the cytokine prior to addition to cells) and further incubated overnight before assessment of Seap activity.

[2] = test system: normal human dermal fibroblasts stimulated with hIL-1β; test: Human fibroblast IL-6 release assay, hIL-1β stimulated; format: cell-based; design: IL-6, average / inhibition, replicates of EXP1, EXP2, EXP3 / inhibition, Mean / IL-1beta (mean, SD): mean readout (IL-6 release): unit not given here; settings: for inhibition, Mean / inhibition, replicates of EXP1, EXP2, EXP3: Figure 3b; for Mean OD (OD 450nm) / IL-1beta (mean, SD): mean readout (IL-6 release): Figure 3c; for Mean OD (OD 450nm): compound 500 nM; for IL-1beta (mean, SD): mean readout (IL-6 release): compound @ 50uM
Experimental: as §1
(§2) Normal human dermal fibroblasts (NHDF) from Clonetics^TM (LONZA, Cat # CC-2509 (NHDF-Neo), Lot # 0000234242, used at passage ≤14) were seeded at a density of 5000 cells/well in 100 μL of culture medium using 96-well plates (flat bottom, TCT). Treatment with cytokines/compounds was performed as described above. Cells were incubated for another 6 h and were subsequently spun down (320g/3 min). IL-6 was measured in the supernatant by ELISA (BioLegend, # 430503) or HTRF (Cisbio, #62HIL06PEH).

[3] = test system: normal human dermal fibroblasts stimulated with hIL-1α; test: Human fibroblast IL-6 release assay, hIL-1α stimulated; format: cell-based; design: IL-1alpha (mean, SD): mean readout (IL-6 release): unit not given here; settings: for Mean OD (OD 450nm) / IL-1alpha (mean, SD): mean readout (IL-6 release): Figure 3c; for Mean OD (OD 450nm): compound 500 nM; for IL-1alpha (mean, SD): mean readout (IL-6 release): compound @ 50uM
Experimental: as §1, §2

IL-1β = IL-1β (Homo sapiens, UniProt P01584); test: protein-observed 1H-13C-HMQC NMR binding (I/Io of Leu60 Cδ1H3); design: Mature hIL-1β was expressed in Escherichia coli; made in house; host or cells: Escherichia coli BL21 (DE3), pET17b; settings: hIL-1β 50 µM, 500 µM compound
Chain of IL-1β (P01584 117-269): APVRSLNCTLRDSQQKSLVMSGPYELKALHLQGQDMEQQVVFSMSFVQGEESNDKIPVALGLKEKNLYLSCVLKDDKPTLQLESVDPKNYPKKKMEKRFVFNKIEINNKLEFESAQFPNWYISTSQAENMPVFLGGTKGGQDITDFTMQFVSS

[4] = IL-1alpha, 0.01 uM, per experiment
[5] = IL-1alpha, 0.1 uM, per experiment
[6] = IL-1alpha, 0.2 uM, per experiment
[7] = IL-1alpha, 2 uM, per experiment
[8] = IL-1alpha, 63 uM, per experiment
[9] = IL-1alpha, 200 uM, per experiment
[10] = (S)-2 concentration 0.05 (unit not given)
[11] = (S)-2 concentration 0.4 (unit not given)
[12] = (S)-2 concentration 1 (unit not given)
[13] = (S)-2 concentration 4 (unit not given)
[14] = (S)-2 concentration 11 (unit not given)
[15] = (S)-2 concentration 33 (unit not given)
[16] = (S)-2 concentration 100 (unit not given)

inhibition of the IL-1R1/IL-1α interaction (IL-1α): did not observe inhibition of IL-1α
TR-FRET calculated % inhibition (IL-1α; [4]): 3%
TR-FRET raw data (IL-1α; [4]): 96 and 97
inhibition at 0.01 µM (IL-1α; IL-1alpha, 0.01 uM, per experiment, read-out: TR-FRET calculated % inhibition): 4%
TR-FRET raw data (IL-1α; IL-1alpha, 0.02 uM, per experiment): 96
inhibition at 0.02 µM (IL-1α; IL-1alpha, 0.02 uM, per experiment, read-out: TR-FRET calculated % inhibition): 5%
TR-FRET calculated % inhibition (IL-1α; [5]): 2%
TR-FRET raw data (IL-1α; [5]): 96 and 98
inhibition at 0.1 µM (IL-1α; IL-1alpha, 0.1 uM, per experiment, read-out: TR-FRET calculated % inhibition): 4%
TR-FRET calculated % inhibition (IL-1α; [6]): 3%
TR-FRET raw data (IL-1α; [6]): 95 and 97
inhibition at 0.2 µM (IL-1α; IL-1alpha, 0.2 uM, per experiment, read-out: TR-FRET calculated % inhibition): 6%
TR-FRET raw data (IL-1α; IL-1alpha, 0.6 uM, per experiment): 99 and 89
TR-FRET calculated % inhibition (IL-1α; [7]): 2% and 11%
TR-FRET raw data (IL-1α; [7]): 98 and 90
TR-FRET raw data (IL-1α; IL-1alpha, 6 uM, per experiment): 87 and 97
TR-FRET raw data (IL-1α; IL-1alpha, 20 uM, per experiment): 87 and 99
TR-FRET calculated % inhibition (IL-1α; [8]): 8% and 2%
TR-FRET raw data (IL-1α; [8]): 93 and 98
TR-FRET calculated % inhibition (IL-1α; [9]): 7% and 1%
TR-FRET raw data (IL-1α; [9]): 94 and 99
IC50 (IL-1α; Il1a, read-out: TR-FRET IC50, individual experiments): > 200 µM
IC50 (IL-1α; read-out: TR-FRET IL-1α IC50): > 200 µM
I/Io (ratio of peak intensities of Leu60 Cδ1H3 in 1H-13C-HMQC spectra in presence and absence of ligand) (IL-1β): <0.1
Structure (SMILES): Cc1ccc2c(c1)NC(=O)[C@@]2(c1cn[nH]c1)c1cc(-c2ccc(C(=O)O)cc2C(=O)O)ccc1O [Compound (S)-2]
reporter activity with hIL-1α as trigger [1]: ineffective
block of hIL-1β driven IL-6 release [2]: could inhibit the response to hIL-1β
inhibition, Mean [2, 10]: 11.8111
inhibition, replicates of EXP1, EXP2, EXP3 [2, 10]: 1.099 and 7.654 and 32.9874 and 11.239 and 6.325 and 15.536 and -5.489 and 15.493 and 21.4551
inhibition, replicates of EXP1, EXP2, EXP3 ([2]; (S)-2 concentration 0.1 (unit not given)): 18.345 and 33.8012 and 24.896 and 0.607 and 18.6036 and 23.695 and -10.879 and 23.6096
inhibition, Mean [2, 11]: 16.1795
inhibition, replicates of EXP1, EXP2, EXP3 [2, 11]: 6.922 and -13.568 and 28.7773 and 15.933 and -2.853 and 20.6147 and 21.633 and -16.264 and 22.2291
inhibition, Mean [2, 12]: 20.6552
inhibition, replicates of EXP1, EXP2, EXP3 [2, 12]: 28.445 and 6.394 and 37.2847 and 8.462 and 8.741 and 33.0478 and 30.776 and 11.643 and 21.1029
inhibition, Mean [2, 13]: 41.6476
inhibition, replicates of EXP1, EXP2, EXP3 [2, 13]: 30.652 and 40.964 and 60.1425 and 37.001 and 32.643 and 49.8155 and 34.125 and 37.671 and 51.8132
inhibition, Mean [2, 14]: 62.727
inhibition, replicates of EXP1, EXP2, EXP3 [2, 14]: 59.128 and 61.883 and 67.9669 and 57.955 and 65.648 and 69.7834 and 54.055 and 63.991 and 64.1355
inhibition, Mean [2, 15]: 85.133
inhibition, replicates of EXP1, EXP2, EXP3 [2, 15]: 83.359 and 83.395 and 85.1881 and 82.704 and 84.749 and 90.3418 and 80.717 and 88.643 and 87.1001
inhibition, Mean [2, 16]: 92.537
inhibition, replicates of EXP1, EXP2, EXP3 [2, 16]: 91.3 and 94.175 and 93.9868 and 93.148 and 93.985 and 90.8655 and 91.665 and 91.77 and 91.9373
Mean OD (OD 450nm) ([2]; hu IL-1b 0 pg/mL): 0.033
IL-1beta (mean, SD): mean readout (IL-6 release) ([2]; hu IL-1b 0 pg/mL): 0
Mean OD (OD 450nm) ([2]; hu IL-1b 40 pg/mL): 0.067
IL-1beta (mean, SD): mean readout (IL-6 release) ([2]; hu IL-1b 40 pg/mL): 0
Mean OD (OD 450nm) ([2]; hu IL-1b 80 pg/mL): 0.219
IL-1beta (mean, SD): mean readout (IL-6 release) ([2]; hu IL-1b 80 pg/mL): 866.8
Mean OD (OD 450nm) ([2]; hu IL-1b 120 pg/mL): 0.313
IL-1beta (mean, SD): mean readout (IL-6 release) ([2]; hu IL-1b 120 pg/mL): 1562
Mean OD (OD 450nm) ([2]; hu IL-1b 160 pg/mL): 0.45
IL-1beta (mean, SD): mean readout (IL-6 release) ([2]; hu IL-1b 160 pg/mL): 2574.8
Mean OD (OD 450nm) ([2]; hu IL-1b 200 pg/mL): 0.463
IL-1beta (mean, SD): mean readout (IL-6 release) ([2]; hu IL-1b 200 pg/mL): 2669.4
IC50 ([2]; Homo sapiens, Fibroblast, 6 h, human dermal fibroblasts, hIL-1β, 6 h, read-out: IL-6 release IC50): 7.9 ± 2 µM
IL-6 release IC50 ([2]; human dermal fibroblasts, hIL-1β, 6 h): single digit micromolar range
IC50 ([2]; source data, read-out: IL-6 IC50, individual experiments): 18.8 µM and 26.2 µM and 7.43 µM and 6.22 µM and 5.77 µM and 5.73 µM and 4.59 µM and 7.91 µM and 8.11 µM and 5.61 µM and 6.38 µM
effect on hIL-1α driven IL-6 release [3]: had no effect on hIL-1α driven IL-6 release
Mean OD (OD 450nm) ([3]; hu IL-1A 0 pg/mL): 0.031
Mean OD (OD 450nm) ([3]; hu IL-1A 40 pg/mL): 0.372
Mean OD (OD 450nm) ([3]; hu IL-1A 80 pg/mL): 0.573
Mean OD (OD 450nm) ([3]; hu IL-1A 120 pg/mL): 0.693
Mean OD (OD 450nm) ([3]; hu IL-1A 160 pg/mL): 0.736
Mean OD (OD 450nm) ([3]; hu IL-1A 200 pg/mL): 0.751
IL-1alpha (mean, SD): mean readout (IL-6 release) ([3]; hu IL-1a 0 pg/mL): 0
IL-1alpha (mean, SD): mean readout (IL-6 release) ([3]; hu IL-1a 40 pg/mL): 1994.8
IL-1alpha (mean, SD): mean readout (IL-6 release) ([3]; hu IL-1a 80 pg/mL): 3486.9
IL-1alpha (mean, SD): mean readout (IL-6 release) ([3]; hu IL-1a 120 pg/mL): 4374.4
IL-1alpha (mean, SD): mean readout (IL-6 release) ([3]; hu IL-1a 160 pg/mL): 4691.2
IL-1alpha (mean, SD): mean readout (IL-6 release) ([3]; hu IL-1a 200 pg/mL): 4802.2
